Columns and labels:
Assay in all cases: relative viability (nuclei count vs DMSO), 5 days (fraction); higher = more cells survive
[1] = tested on: NCI-H1793
Procedure, shortened: (§1)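 Five library-drug doses in √10 steps were combined with a fixed anchor-drug dose, or a single drug was given alone, by pin tool to lung cancer cell lines in 1536-well plates the day after seeding. Nuclei were stained and counted after 5 days. Relative viability is the nuclei count in treated wells over that in vehicle wells, taken as the median of duplicate plates.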

[2] = tested on: NCI-H1944
Procedure, shortened: as §1

[3] = tested on: NCI-H2087
Procedure, shortened: as §1

[4] = tested on: NCI-H2228
Procedure, shortened: as §1

[5] = tested on: NCI-H2405
Procedure, shortened: as §1

[6] = tested on: NCI-H3122
Procedure, shortened: as §1

[7] = tested on: NCI-H322M
Procedure, shortened: as §1

[8] = tested on: NCI-H647
Procedure, shortened: as §1

[9] = tested on: NCI-H727
Procedure, shortened: as §1

[10] = tested on: RERF-LC-KJ
Procedure, shortened: as §1

[11] = tested on: SK-LU-1
Procedure, shortened: as §1

O=c1cc(-c2cccc3c2Sc2ccccc2S3)oc(N2CCOCC2)c1 + Cc1nc(Nc2ncc(C(=O)Nc3c(C)cccc3Cl)s2)cc(N2CCN(CCO)CC2)n1 [Dasatinib] (partner 0.075 µM)
relative viability ([1]; first compound 0.08 µM): 0.379 | relative viability ([1]; first compound 0.253 µM): 0.441 | relative viability ([1]; first compound 0.8 µM): 0.335 | relative viability ([1]; first compound 2.53 µM): 0.379 | relative viability ([1]; first compound 8 µM): 0.386 | relative viability ([2]; first compound 0.08 µM): 0.21 | relative viability ([2]; first compound 0.253 µM): 0.223 | relative viability ([2]; first compound 0.8 µM): 0.207 | relative viability ([2]; first compound 2.53 µM): 0.176 | relative viability ([2]; first compound 8 µM): 0.24 | relative viability ([3]; first compound 0.08 µM): 0.787 | relative viability ([3]; first compound 0.253 µM): 0.936 | relative viability ([3]; first compound 0.8 µM): 0.943 | relative viability ([3]; first compound 2.53 µM): 0.919 | relative viability ([3]; first compound 8 µM): 0.699 | relative viability ([4]; first compound 0.08 µM): 0.547 | relative viability ([4]; first compound 0.253 µM): 0.6 | relative viability ([4]; first compound 0.8 µM): 0.625 | relative viability ([4]; first compound 2.53 µM): 0.402 | relative viability ([4]; first compound 8 µM): 0.51 | relative viability ([5]; first compound 0.08 µM): 0.183 | relative viability ([5]; first compound 0.253 µM): 0.194 | relative viability ([5]; first compound 0.8 µM): 0.192 | relative viability ([5]; first compound 2.53 µM): 0.179 | relative viability ([5]; first compound 8 µM): 0.209 | relative viability ([6]; first compound 0.08 µM): 0.79 | relative viability ([6]; first compound 0.253 µM): 0.787 | relative viability ([6]; first compound 0.8 µM): 0.784 | relative viability ([6]; first compound 2.53 µM): 0.828 | relative viability ([6]; first compound 8 µM): 0.929 | relative viability ([7]; first compound 0.08 µM): 0.251 | relative viability ([7]; first compound 0.253 µM): 0.262 | relative viability ([7]; first compound 0.8 µM): 0.249 | relative viability ([7]; first compound 2.53 µM): 0.253 | relative viability ([7]; first compound 8 µM): 0.279 | relative viability ([8]; first compound 0.08 µM): 0.128 | relative viability ([8]; first compound 0.253 µM): 0.205 | relative viability ([8]; first compound 0.8 µM): 0.208 | relative viability ([8]; first compound 2.53 µM): 0.123 | relative viability ([8]; first compound 8 µM): 0.155 | relative viability ([9]; first compound 0.08 µM): 0.332 | relative viability ([9]; first compound 0.253 µM): 0.438 | relative viability ([9]; first compound 0.8 µM): 0.449 | relative viability ([9]; first compound 2.53 µM): 0.382 | relative viability ([9]; first compound 8 µM): 0.409 | relative viability ([10]; first compound 0.08 µM): 0.685 | relative viability ([10]; first compound 0.253 µM): 0.975 | relative viability ([10]; first compound 0.8 µM): 0.918 | relative viability ([10]; first compound 2.53 µM): 0.758 | relative viability ([10]; first compound 8 µM): 0.74 | relative viability ([11]; first compound 0.08 µM): 0.156 | relative viability ([11]; first compound 0.253 µM): 0.17 | relative viability ([11]; first compound 0.8 µM): 0.205 | relative viability ([11]; first compound 2.53 µM): 0.18 | relative viability ([11]; first compound 8 µM): 0.182

Source: the supplement of paper PMC10307832
